Measured values taken from ChEMBL document CHEMBL1201862, “PubChem BioAssay data set” (2004).
The source made the active and inactive calls.

How the values were obtained:
[1] = molecular target: Bcl-2-like protein 10 (Homo sapiens, UniProt Q9HD36); test: Bcl-B/TR3 peptide binding disruption – biochemical, fluorescence polarization, FITC-TR3 peptide, selectivity assay for Bfl-1 inhibitor project, primary screen (AID 748);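 note: fluorescence polarization from a fluorescein-labelled TR3 peptide binding purified Bcl-B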
[2] = molecular target: T1, DNA repair and recombination protein RAD54-like (Homo sapiens, UniProt Q92698); test: RAD54 Holliday junction migration blockers – biochemical, fluorescence, cherry-picked samples, dose series, confirmation (AID 651657); type: functional
T1 sequence (Q92698 whole entry): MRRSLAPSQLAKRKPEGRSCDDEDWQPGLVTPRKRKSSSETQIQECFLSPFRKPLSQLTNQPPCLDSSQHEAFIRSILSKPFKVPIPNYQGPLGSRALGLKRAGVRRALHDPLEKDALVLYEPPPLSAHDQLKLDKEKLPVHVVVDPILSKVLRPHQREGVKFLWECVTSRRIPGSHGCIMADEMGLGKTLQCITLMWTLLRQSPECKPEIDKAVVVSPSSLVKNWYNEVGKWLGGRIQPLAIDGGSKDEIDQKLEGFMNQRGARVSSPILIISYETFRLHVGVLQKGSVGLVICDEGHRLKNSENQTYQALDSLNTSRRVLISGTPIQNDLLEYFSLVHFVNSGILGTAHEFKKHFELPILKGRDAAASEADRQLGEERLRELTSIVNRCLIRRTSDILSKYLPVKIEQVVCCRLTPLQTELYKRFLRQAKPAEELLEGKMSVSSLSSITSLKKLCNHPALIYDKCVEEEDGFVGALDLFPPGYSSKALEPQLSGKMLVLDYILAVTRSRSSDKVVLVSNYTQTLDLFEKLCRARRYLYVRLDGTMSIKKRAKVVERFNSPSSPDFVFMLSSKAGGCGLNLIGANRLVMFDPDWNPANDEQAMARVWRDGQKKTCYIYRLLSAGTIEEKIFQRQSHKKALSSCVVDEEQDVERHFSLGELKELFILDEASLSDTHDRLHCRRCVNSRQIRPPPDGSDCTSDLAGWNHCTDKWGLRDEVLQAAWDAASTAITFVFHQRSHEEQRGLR

[3] = tested on: MDA-MB-435; test: cells; type: functional, cell-based; conditions: Homo sapiens
[4] = cells; type: functional, cell-based; conditions: PPC-1
[5] = molecular target: T2, Voltage-gated N-type calcium channel alpha-1B subunit/Amyloid beta A4 precursor protein-binding family A member 1 (Homo sapiens, UniProt Q00975+Q02410); type: protein assay
T2 sequence (Q00975 whole entry, the tested form may be a part): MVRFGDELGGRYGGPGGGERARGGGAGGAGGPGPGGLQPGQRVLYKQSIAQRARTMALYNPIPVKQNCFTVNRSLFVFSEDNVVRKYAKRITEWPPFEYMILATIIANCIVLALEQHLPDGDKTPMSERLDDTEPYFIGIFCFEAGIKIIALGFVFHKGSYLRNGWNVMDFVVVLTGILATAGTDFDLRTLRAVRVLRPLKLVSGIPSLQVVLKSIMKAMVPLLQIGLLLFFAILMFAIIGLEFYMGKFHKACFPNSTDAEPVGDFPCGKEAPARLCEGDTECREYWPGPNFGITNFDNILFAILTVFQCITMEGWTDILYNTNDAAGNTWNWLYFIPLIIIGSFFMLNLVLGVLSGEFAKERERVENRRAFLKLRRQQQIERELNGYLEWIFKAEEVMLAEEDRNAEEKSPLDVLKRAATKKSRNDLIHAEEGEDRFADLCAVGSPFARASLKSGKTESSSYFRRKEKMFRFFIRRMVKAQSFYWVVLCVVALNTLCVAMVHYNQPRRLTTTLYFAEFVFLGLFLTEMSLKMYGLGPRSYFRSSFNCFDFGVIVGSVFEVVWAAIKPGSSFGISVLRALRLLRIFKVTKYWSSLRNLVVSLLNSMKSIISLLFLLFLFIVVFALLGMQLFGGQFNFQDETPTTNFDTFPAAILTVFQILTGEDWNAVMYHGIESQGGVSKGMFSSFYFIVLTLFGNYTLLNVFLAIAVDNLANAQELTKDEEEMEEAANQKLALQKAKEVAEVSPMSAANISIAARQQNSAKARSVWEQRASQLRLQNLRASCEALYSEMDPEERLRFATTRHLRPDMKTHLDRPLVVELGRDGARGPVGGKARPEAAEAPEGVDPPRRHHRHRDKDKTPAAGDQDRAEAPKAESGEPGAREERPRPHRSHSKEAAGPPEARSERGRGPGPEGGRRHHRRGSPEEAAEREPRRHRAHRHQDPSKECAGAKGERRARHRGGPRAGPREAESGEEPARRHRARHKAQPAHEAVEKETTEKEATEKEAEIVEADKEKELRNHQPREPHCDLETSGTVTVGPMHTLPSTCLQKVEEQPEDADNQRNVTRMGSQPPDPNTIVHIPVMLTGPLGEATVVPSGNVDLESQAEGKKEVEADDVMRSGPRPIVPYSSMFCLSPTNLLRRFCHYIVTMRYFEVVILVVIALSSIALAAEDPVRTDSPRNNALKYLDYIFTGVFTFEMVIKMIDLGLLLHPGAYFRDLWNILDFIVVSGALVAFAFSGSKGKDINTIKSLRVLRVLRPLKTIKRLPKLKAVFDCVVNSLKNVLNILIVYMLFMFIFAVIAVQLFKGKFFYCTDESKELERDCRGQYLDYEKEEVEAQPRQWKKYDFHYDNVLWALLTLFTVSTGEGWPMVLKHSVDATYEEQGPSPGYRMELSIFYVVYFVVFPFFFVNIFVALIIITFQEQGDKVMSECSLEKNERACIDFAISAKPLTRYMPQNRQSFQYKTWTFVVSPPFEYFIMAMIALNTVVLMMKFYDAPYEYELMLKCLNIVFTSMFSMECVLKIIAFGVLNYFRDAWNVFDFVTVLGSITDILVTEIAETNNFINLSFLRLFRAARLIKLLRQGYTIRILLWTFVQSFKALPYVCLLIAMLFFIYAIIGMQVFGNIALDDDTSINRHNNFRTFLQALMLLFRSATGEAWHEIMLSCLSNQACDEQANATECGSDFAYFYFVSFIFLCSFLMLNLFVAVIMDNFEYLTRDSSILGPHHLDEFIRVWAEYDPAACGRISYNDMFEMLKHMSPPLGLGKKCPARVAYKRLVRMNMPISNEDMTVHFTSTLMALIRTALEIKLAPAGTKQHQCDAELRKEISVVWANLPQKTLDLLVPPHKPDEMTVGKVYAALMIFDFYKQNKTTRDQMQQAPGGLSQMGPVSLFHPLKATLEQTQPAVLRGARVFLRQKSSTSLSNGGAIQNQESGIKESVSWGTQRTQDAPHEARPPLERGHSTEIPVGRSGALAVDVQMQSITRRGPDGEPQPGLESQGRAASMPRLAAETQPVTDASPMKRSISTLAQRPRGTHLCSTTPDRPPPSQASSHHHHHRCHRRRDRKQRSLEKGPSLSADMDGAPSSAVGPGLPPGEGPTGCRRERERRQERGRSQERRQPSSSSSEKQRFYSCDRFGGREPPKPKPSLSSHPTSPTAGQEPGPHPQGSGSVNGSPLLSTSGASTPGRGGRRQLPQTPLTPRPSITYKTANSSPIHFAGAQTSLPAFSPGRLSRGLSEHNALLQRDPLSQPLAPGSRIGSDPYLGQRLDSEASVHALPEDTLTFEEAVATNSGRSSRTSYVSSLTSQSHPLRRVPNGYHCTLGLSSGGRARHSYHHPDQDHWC
T2 sequence (Q02410 whole entry, the tested form may be a part): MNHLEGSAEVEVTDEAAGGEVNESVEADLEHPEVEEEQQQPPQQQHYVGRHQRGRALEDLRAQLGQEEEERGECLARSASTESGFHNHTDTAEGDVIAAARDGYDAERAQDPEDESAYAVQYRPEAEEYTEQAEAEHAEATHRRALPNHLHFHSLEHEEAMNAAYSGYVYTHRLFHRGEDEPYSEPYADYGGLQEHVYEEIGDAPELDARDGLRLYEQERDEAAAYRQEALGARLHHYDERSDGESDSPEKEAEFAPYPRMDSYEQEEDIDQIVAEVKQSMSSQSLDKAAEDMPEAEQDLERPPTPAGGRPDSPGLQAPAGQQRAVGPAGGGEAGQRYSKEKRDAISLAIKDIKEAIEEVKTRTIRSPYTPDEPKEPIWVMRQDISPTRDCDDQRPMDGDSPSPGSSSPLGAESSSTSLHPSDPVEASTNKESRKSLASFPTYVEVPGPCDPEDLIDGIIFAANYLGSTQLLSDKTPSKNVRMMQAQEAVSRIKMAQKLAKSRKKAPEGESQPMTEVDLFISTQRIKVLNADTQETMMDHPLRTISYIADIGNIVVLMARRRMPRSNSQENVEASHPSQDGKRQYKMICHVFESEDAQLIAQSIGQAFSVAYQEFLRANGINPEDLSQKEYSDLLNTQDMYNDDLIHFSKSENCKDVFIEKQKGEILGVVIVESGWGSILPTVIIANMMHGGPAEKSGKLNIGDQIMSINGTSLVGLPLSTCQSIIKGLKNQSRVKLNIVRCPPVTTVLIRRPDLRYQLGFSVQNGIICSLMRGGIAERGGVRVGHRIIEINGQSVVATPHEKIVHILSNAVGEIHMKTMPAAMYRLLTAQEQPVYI

[6] = Fluorescence-based cell-based high throughput dose response assay for inhibitors of the interaction of nucleotide-binding oligomerization domain containing 2 (NOD2) and the receptor-interacting serine-threonine kinase 2 (RIPK2).; type: functional; conditions: Homo sapiens
[7] = molecular target: Glucose-6-phosphate 1-dehydrogenase (Homo sapiens, UniProt P11413); test: inhibition of Homo sapiens G6PD, dose series – biochemical, fluorescence, selectivity assay for P. falciparum G6PD inhibitor project, dose response (AID 504792); type: functional
[8] = molecular target: Large T antigen (Simian virus 40, UniProt P03070); type: functional, Betapolyomavirus macacae;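 note: Confirmatory-stage PubChem screen for compounds that inhibit SV40 T antigen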
[9] = molecular target: T2, Voltage-gated N-type calcium channel alpha-1B subunit/Amyloid beta A4 precursor protein-binding family A member 1; type: protein assay; remark: listed apart in the source
[10] = molecular target: Beta Lactamase (Pseudomonas aeruginosa, UniProt Q932Y6); test: BLA reporter interference, concentration series – BLA reporter cells, FRET fluorescence, artefact control for NOD2-RIPK2 interaction inhibitor project, dose response (AID 651552); type: functional, cell-based
[11] = molecular target: ORF 73 (Human herpesvirus 8, UniProt O40947); test: KSHV LANA DNA-binding disruption – biochemical, fluorescence polarization, cherry-picked samples, dose response (AID 504725); design: species or system Human gammaherpesvirus 8;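 note: fluorescence polarization of a labeled DNA duplex reporting LANA DNA binding; potency is for inhibitors that block LANA binding to the DNA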
[12] = molecular target: T3, Protein Tat (Human immunodeficiency virus type 1 group M subtype B (isolate HXB2)(HIV-1), UniProt P04608); type: functional;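 note: tat binding to TAR RNA read out by fluorescence polarization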
T3 sequence (P04608 whole entry): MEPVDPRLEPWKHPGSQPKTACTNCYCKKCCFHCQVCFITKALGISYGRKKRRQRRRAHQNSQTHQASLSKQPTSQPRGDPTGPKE

[13] = molecular target: Keap1/Nrf2 (Homo sapiens, UniProt Q14145); test: disruptors of Keap1 binding to Nrf2 peptide – biochemical, fluorescence polarization, cherry-picked samples, dose response (AID 588683)
[14] = molecular target: T4, Rac GTPase-activating protein 1 (Homo sapiens, UniProt Q9H0H5); test: blockers of MgcRacGAP-driven Rac1 GTP hydrolysis – biochemical, ADP Hunter fluorescence, primary and confirmatory, confirmation (AID 624330); type: functional
T4 sequence (Q9H0H5 whole entry): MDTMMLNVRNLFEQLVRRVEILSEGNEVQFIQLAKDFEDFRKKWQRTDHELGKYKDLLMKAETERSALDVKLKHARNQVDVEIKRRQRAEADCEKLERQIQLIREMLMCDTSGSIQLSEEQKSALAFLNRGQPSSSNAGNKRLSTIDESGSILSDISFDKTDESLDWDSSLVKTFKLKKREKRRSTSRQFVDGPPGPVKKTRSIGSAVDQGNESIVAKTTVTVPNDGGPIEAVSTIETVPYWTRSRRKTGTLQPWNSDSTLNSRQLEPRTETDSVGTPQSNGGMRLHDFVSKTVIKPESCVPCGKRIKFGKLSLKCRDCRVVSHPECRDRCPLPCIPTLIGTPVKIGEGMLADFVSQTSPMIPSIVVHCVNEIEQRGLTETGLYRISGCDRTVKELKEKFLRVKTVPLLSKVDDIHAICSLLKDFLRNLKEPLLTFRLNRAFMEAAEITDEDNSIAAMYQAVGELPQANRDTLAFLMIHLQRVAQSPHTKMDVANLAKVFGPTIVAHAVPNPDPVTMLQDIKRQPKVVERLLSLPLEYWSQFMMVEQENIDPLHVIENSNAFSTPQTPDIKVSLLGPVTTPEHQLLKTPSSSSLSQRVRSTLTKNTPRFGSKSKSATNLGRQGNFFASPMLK

[15] = molecular target: Glyceraldehyde-3-phosphate dehydrogenase (Homo sapiens, UniProt P04406)
Glyceraldehyde-3-phosphate dehydrogenase, sequence (P04406 whole entry): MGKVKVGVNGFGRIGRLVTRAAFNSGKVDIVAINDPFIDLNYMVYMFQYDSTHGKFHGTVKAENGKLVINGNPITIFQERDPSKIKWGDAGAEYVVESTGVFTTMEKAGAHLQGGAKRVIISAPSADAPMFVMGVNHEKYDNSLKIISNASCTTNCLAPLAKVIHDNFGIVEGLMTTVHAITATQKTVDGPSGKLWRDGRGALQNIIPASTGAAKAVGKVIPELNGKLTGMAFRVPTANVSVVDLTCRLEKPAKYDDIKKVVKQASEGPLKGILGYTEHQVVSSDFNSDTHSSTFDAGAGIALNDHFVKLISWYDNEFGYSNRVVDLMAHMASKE

[16] = molecular target: Alkaline phosphatase, placental type (Homo sapiens, UniProt P05187); test: human placental alkaline phosphatase inhibition – biochemical, luminescence, confirmation (AID 1512); type: functional
[17] = molecular target: T5, Alkaline phosphatase, tissue-nonspecific isozyme (Homo sapiens, UniProt P05186); test: potency against alkaline phosphatase TNAP – biochemical, luminescent, dose response, SAR follow-up (AID 1056)
T5 sequence (P05186 whole entry): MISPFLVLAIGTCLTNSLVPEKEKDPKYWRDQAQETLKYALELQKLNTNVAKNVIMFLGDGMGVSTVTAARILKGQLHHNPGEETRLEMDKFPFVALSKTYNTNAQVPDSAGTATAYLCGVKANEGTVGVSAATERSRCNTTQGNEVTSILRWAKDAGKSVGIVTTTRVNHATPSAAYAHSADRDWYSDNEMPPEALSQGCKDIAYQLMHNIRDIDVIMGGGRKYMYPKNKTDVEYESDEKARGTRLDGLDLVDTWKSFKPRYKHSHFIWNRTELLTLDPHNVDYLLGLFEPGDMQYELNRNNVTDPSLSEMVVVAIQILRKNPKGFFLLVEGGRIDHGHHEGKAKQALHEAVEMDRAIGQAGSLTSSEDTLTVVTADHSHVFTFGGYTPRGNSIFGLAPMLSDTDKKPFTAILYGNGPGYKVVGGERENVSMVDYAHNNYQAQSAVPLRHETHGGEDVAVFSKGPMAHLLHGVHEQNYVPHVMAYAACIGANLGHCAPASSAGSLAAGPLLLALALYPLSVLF

[18] = Luminescence Cell-Based Dose Retest to Confirm Inhibitors of Cancer Stem Cells. [Related pubchem assays (depositor defined):AID2717, AID2721]; type: functional; conditions: Homo sapiens
[19] = molecular target: Neurotensin receptor type 1 (Homo sapiens, UniProt P30989); type: functional;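 note: Image-based confirmatory dose-response assay measuring agonist activity at NTR1; NTR1-expressing U2OS osteosarcoma cells imaged for beta-arrestin GFP spot formation; agonist potency where compounds increase beta-arrestin recruitment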
[20] = molecular target: Beta-galactosidase (Escherichia coli, UniProt Q8VNN2); test: detection-enzyme interference by beta-gal modulators – biochemical, E. coli enzyme, set 3, artefact control for CCR6 antagonist project, dose response (AID 504712); type: functional
[21] = molecular target: Paired box protein Pax-8 (Homo sapiens, UniProt Q06710); test: PAX8 transcriptional activity inhibition in RMG-I – RMG-I cells, luciferase, cherry-pick, dose response (AID 687027); type: functional, cell-based;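 note: luciferase reporter driven by Pax8 target thyroperoxidase promoter measured by SteadyGlo luminescence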
[22] = general cell-killing toxicity readout – plate reader, dry powder samples, cytotoxicity control for PAX8 inhibitor project, dose response (AID 743021); type: functional, cell-based
[23] = reduction of Shn3 3'UTR-driven luciferase in osteoblasts – cell-based, Clone20 osteoblasts, firefly luciferase, cherry-picked, dose response (AID 624132); type: functional;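 note: firefly luciferase luminescence from reporter carrying the Shn3 3'UTR in osteoblasts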
[24] = loss of viability in HepG2 cells – cell-based, CellTiter-Glo, cherry-picked, cytotoxicity control for Shn3 inhibitor project, dose response (AID 624134); type: functional
[25] = molecular target: Delta-type opioid receptor (Homo sapiens, UniProt P41143); test: SAR Analysis of Agonists of the DOR Receptor using an Image-Based Assay - Set 3. [Related pubchem assays (depositor defined):AID1777, AID1786]; type: functional
Delta-type opioid receptor, sequence (P41143 whole entry): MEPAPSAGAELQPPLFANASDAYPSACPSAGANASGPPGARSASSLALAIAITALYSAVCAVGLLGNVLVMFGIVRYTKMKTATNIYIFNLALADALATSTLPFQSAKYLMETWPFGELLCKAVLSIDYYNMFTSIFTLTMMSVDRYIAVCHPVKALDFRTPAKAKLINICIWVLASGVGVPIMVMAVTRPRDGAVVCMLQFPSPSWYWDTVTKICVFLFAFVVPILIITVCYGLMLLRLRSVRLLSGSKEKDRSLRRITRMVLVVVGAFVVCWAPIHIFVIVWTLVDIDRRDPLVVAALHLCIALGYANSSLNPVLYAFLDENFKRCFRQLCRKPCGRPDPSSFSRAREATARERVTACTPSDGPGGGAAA

[26] = molecular target: T6, Kappa-type opioid receptor (Homo sapiens, UniProt P41145); test: kappa opioid receptor activation by imaging – image-based, set 3, SAR follow-up (AID 488833); type: functional
T6 sequence (P41145 whole entry): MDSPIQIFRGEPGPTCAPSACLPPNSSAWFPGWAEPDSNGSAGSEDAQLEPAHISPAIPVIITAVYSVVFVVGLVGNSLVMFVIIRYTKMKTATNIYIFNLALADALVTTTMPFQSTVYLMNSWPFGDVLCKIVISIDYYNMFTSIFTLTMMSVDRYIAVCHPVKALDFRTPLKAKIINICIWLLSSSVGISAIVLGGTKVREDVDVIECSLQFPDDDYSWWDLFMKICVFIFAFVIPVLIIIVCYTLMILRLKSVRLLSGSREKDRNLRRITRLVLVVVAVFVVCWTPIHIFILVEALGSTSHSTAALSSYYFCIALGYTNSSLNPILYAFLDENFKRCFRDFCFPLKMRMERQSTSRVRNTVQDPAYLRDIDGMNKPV

[27] = molecular target: T6, Kappa-type opioid receptor; test: SAR analysis of small molecule agonists of the kappa opioid receptor via a luminescent beta-arrestin assay - Set 3. [Related pubchem assays (depositor defined):AID1777, AID1785, AID1786, AID1966, AID2133, AID2136, AID2284, AID2500]; type: functional
[28] = molecular target: Mu-type opioid receptor (Homo sapiens, UniProt P35372); test: SAR Analysis of Agonists of the MOR Receptor using an Image-Based Assay - Set 3. [Related pubchem assays (depositor defined):AID1777, AID1785, AID1786, AID1966, AID2133, AID2136, AID2284, AID2285, AID2352]; type: functional
[29] = viability loss in HeLa cells – cytotoxicity control for MgcRacGAP inhibitor project, dose response (AID 624300); type: functional
[30] = molecular target: Scavenger receptor class B member 1 (Mus musculus, UniProt Q61009); test: mouse SR-BI DiI-HDL uptake blockers – ldlA[mSR-BI] cells, fluorescence, cherry pick, dose response (AID 493194); type: functional, cell-based;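 note: cellular uptake of fluorescent DiI-labeled HDL measured as cell fluorescence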
[31] = molecular target: Signal transducer and activator of transcription 3 (Homo sapiens, UniProt P40763); test: STAT3 activation with BCL3 mRNA and toxicity – cell-based, […], BCL3 qPCR, cytotoxicity, late-stage follow-up, panel member STAT3 Activation (AID 2049)
Signal transducer and activator of transcription 3, sequence (P40763 whole entry): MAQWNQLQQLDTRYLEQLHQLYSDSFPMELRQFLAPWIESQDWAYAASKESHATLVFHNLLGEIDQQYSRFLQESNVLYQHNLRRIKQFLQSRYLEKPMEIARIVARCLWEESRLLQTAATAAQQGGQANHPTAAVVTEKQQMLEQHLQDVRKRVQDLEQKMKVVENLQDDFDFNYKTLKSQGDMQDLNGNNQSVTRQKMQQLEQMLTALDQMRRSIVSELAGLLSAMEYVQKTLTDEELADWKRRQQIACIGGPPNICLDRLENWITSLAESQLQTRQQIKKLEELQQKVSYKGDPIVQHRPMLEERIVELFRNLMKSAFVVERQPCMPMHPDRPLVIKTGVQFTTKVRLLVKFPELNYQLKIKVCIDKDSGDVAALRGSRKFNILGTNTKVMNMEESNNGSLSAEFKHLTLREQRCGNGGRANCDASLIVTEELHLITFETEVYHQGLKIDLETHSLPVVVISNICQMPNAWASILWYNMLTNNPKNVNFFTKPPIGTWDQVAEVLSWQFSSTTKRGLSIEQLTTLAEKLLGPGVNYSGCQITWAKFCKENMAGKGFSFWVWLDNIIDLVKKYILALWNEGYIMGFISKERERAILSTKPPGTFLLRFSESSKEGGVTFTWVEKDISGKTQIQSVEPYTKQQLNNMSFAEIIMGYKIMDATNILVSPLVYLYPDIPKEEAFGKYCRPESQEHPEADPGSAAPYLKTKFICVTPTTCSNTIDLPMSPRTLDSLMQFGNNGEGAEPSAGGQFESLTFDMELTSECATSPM

[32] = molecular target: Voltage-dependent T-type calcium channel subunit alpha-1H (Homo sapiens, UniProt O95180); test: human CACNA1H calcium influx blockade – cell-based, synthetic library set 1, calcium flux (AID 493022); type: functional
[33] = molecular target: Neutrophil collagenase (Homo sapiens, UniProt P22894); test: potency against MMP13, MMP2, MMP3, MMP14 – biochemical, probe development, late stage results, selectivity assay for MMP13 inhibitor project, late-stage follow-up, panel member MMP-8 [IC50 Assay] (AID 2067)

## CN(C)CCSc1nc(N)c2c3c(sc2n1)CN(C)CC3
[1]
  IC50: 46.2 µM (active)
[2]
  AC50: 28.9 µM (active)

## COc1cc(-c2ccccc2)nc(S)n1
[3]
  IC50: > 10 µM (inactive)
[4]
  IC50: > 10 µM (inactive)

## N#C/C(C(=O)Nc1ccc(Cl)cc1)=C(/S)Nc1ccccc1
[5]
  IC50: 25.5 µM (active)
[6]
  IC50: 19.6 µM (inactive)
[7]
  IC50: 52 µM (inactive)
[8]
  IC50: 16.5 µM (active)
[9]
  IC50: 13.9 µM (active)
[10]
  IC50: 49.8 µM (inactive)

## Cc1nc2ccccc2n2c(O)c(CC(=O)O)cc12
[11]
  AC50: 10 µM (active)
[12]
  IC50: 6.32 µM (inconclusive)
[13]
  AC50: 12.3 µM (active)
[14]
  IC50: 35 µM (active)

## CC(C)(C)NC(=O)c1cc(-c2cc(F)c(Cl)cc2Cl)n[nH]1
[15]
  IC50: > 100 µM (not active)
[16]
  IC50: > 100 µM (inactive)
[17]
  IC50: 1.08 µM (active)

## CC1=C(C(=O)OC2CCCCCCC2)C(c2cc3c(cc2Br)OCO3)CC(=O)N1 (centres undefined)
[18]
  AC50: 3.59 µM (active)
[19]
  EC50: 18.2 µM (active)

## O=C(OCc1ccccc1)N(CCCCN(CCCNCc1ccccc1)C(=O)OCc1ccccc1)CCCNCc1ccccc1
[20]
  IC50: > 66.6 µM (inactive)
[21]
  AC50: 9.11 µM (active)
[22]
  AC50: 10.3 µM (active)
[23]
  AC50: 5.36 µM (active)
[24]
  AC50: 4.16 µM (active)

## N#Cc1ccc(CSc2nnc(-c3ccccn3)n2Cc2ccco2)cc1
[25]
  EC50: > 64 µM (inactive)
[26]
  EC50: 19.3 µM (inactive)
[27]
  EC50: 6.79 µM (active)
[28]
  EC50: > 32 µM (inactive)

## C=C(CN(C)C)C(=O)c1ccc(OC2OC(COC(C)=O)C(OC(C)=O)C(OC(C)=O)C2OC(C)=O)cc1 (centres undefined)
[29]
  CC50: 100 µM (active)
[14]
  IC50: 162 µM (active)
[30]
  AC50: 6.87 µM (active)

## CN(C(=O)c1cc(C2CC2)on1)c1ccccc1
[31]
  EC50: > 55.7 µM (inactive)

## O=C(COc1ccc(F)c(Cl)c1)Nc1nnc(-c2ccc3c(c2)CCCC3)o1
[32]
  EC50: 2.4 µM (active)

## Oc1nc(SCc2ccc(Cl)cc2)nc2c1CCC2
[33]
  IC50: > 39.8 µM (active)
